Measured values: ChEMBL document CHEMBL1681651, “A broad spectrum anticancer nucleoside with selective toxicity against human colon cells in vitro” (2011)

Columns and labels:
Type in all cases: functional
SK-OV-3 [1] = experiment: Growth inhibition of human SKOV3 cells assessed as cell growth at 1 uM after 48 hrs by SRB assay; conditions: SK-OV-3, 48 h, read-out: Activity
A498 [2] = experiment: Growth inhibition of human A498 cells assessed as cell growth at 1 uM after 48 hrs by SRB assay; conditions: A498, 48 h, read-out: Activity
MCF7 = experiment: Growth inhibition of human MCF7 cells assessed as cell growth at 1 uM after 48 hrs by SRB assay; conditions: MCF7, 48 h, read-out: Activity
SW-620 = experiment: Growth inhibition of human SW620 cells assessed as cell growth at 10 uM after 48 hrs by SRB assay; conditions: SW-620, 48 h, read-out: Activity
A549 = experiment: Growth inhibition of human A549 cells after 48 hrs by […] growth inhibition assay; conditions: A549, 48 h
M14 [3] = experiment: Growth inhibition of human M14 cells after 48 hrs by […] growth inhibition assay; conditions: M14, 48 h
IGROV-1 [4] = experiment: Growth inhibition of human IGROV1 cells after 48 hrs by […] growth inhibition assay; conditions: IGROV-1, 48 h
SK-OV-3 [5] = experiment: Growth inhibition of human SKOV3 cells after 48 hrs by […] growth inhibition assay; conditions: SK-OV-3, 48 h
A498 [6] = experiment: Growth inhibition of human A498 cells after 48 hrs by […] growth inhibition assay; conditions: A498, 48 h
NCI-H460 = experiment: Growth inhibition of human NCI-H460 cells assessed as cell growth at 0.1 uM after 48 hrs by SRB assay; conditions: NCI-H460, 48 h, read-out: Activity
COLO 205 = experiment: Growth inhibition of human COLO205 cells assessed as cell growth at 0.1 uM after 48 hrs by SRB assay; conditions: COLO 205, 48 h, read-out: Activity
HT-29 = experiment: Growth inhibition of human HT-29 cells assessed as cell growth at 0.1 uM after 48 hrs by SRB assay; conditions: HT-29, 48 h, read-out: Activity
OVCAR-5 = experiment: Growth inhibition of human OVCAR5 cells assessed as cell growth at 0.1 uM after 48 hrs by SRB assay; conditions: OVCAR-5, 48 h, read-out: Activity
DU-145 = experiment: Growth inhibition of human DU145 cells assessed as cell growth at 0.1 uM after 48 hrs by SRB assay; conditions: DU-145, 48 h, read-out: Activity
MDA-MB-231 = experiment: Growth inhibition of human MDA-MB-231 cells assessed as cell growth at 0.1 uM after 48 hrs by SRB assay; conditions: MDA-MB-231, 48 h, read-out: Activity
LOX IMVI = experiment: Growth inhibition of human LOXIMVI cells assessed as cell growth at 10 uM after 48 hrs by SRB assay; conditions: read-out: Activity
SK-MEL-5 = experiment: Growth inhibition of human SK-MEL-5 cells assessed as cell growth at 10 uM after 48 hrs by SRB assay; conditions: SK-MEL-5, 48 h, read-out: Activity
UO-31 [7] = experiment: Growth inhibition of human UO31 cells assessed as cell growth at 10 uM after 48 hrs by SRB assay; conditions: UO-31, 48 h, read-out: Activity
NCI/ADR-RES = experiment: Growth inhibition of human NCI/ADR-RES cells assessed as cell growth at 10 uM after 48 hrs by SRB assay; conditions: read-out: Activity
[8] = Growth inhibition of human Hs 578T cells assessed as cell growth at 10 uM after 48 hrs by SRB assay; conditions: read-out: Activity
NCI-H23 = experiment: Growth inhibition of human NCI-H23 cells assessed as cell growth at 100 uM after 48 hrs by SRB assay; conditions: NCI-H23, 48 h, read-out: Activity
HCC 2998 = experiment: Growth inhibition of human HCC2998 cells assessed as cell growth at 100 uM after 48 hrs by SRB assay; conditions: HCC 2998, 48 h, read-out: Activity
RXF 393 [9] = experiment: Growth inhibition of human RXF393 cells assessed as cell growth at 100 uM after 48 hrs by SRB assay; conditions: RXF 393, 48 h, read-out: Activity
UO-31 [10] = experiment: Growth inhibition of human UO31 cells assessed as cell growth at 100 uM after 48 hrs by SRB assay; conditions: UO-31, 48 h, read-out: Activity
MDA-MB-435 = experiment: Growth inhibition of human MDA-MB-435 cells assessed as cell growth at 100 uM after 48 hrs by SRB assay; conditions: MDA-MB-435, 48 h, read-out: Activity
EKVX = experiment: Growth inhibition of human EKVX cells assessed as cell growth at 1 mM after 48 hrs by SRB assay; conditions: read-out: Activity
IGROV-1 [11] = experiment: Growth inhibition of human IGROV1 cells assessed as cell growth at 1 mM after 48 hrs by SRB assay; conditions: IGROV-1, 48 h, read-out: Activity
OVCAR-3 = experiment: Growth inhibition of human OVCAR3 cells assessed as cell growth at 1 mM after 48 hrs by SRB assay; conditions: OVCAR-3, 48 h, read-out: Activity
OVCAR-8 = experiment: Growth inhibition of human OVCAR8 cells assessed as cell growth at 1 mM after 48 hrs by SRB assay; conditions: OVCAR-8, 48 h, read-out: Activity
RXF 393 [12] = experiment: Growth inhibition of human RXF393 cells assessed as cell growth at 1 mM after 48 hrs by SRB assay; conditions: RXF 393, 48 h, read-out: Activity
HCT-116 = experiment: Growth inhibition of human HCT116 cells assessed as cell growth at 1 uM after 48 hrs by SRB assay; conditions: HCT-116, 48 h, read-out: Activity
M14 [13] = experiment: Growth inhibition of human M14 cells assessed as cell growth at 1 uM after 48 hrs by SRB assay; conditions: M14, 48 h, read-out: Activity
[14] = read-out: LC50 (the source's name)
[15] = read-out: pLC50 (the source's name) (converted)

CNC(=O)NC[C@H]1O[C@@H](n2cnc3c(NC(=O)Nc4ccccc4)ncnc32)[C@H](O[Si](C)(C)C(C)(C)C)[C@@H]1CC(=O)N(C)OC showed a growth at 1 µM (SK-OV-3 [1]) of 97%, a growth at 1 µM (A498 [2]) of 96% and a growth at 1 µM (MCF7) of 95%. It also gave a growth at 10 µM (SW-620) of 93%, a GI50 (A549; read-out: GI50) of 9.35 µM and a CC50 (A549; [14]) of over 100 µM. For the same compound, the TGI (A549; read-out: TGI) was over 100 µM, the GI50 (A549; read-out: pGI50 (converted)) was 9.33 µM and the CC50 (A549; [15]) was over 100 µM. For the same compound, the TGI (A549; read-out: pTGI (converted)) was over 100 µM, the GI50 (M14 [3]; read-out: GI50) was 15.2 µM and the CC50 (M14 [3]; [14]) was over 100 µM. For the same compound, the TGI (M14 [3]; read-out: TGI) was over 100 µM, the GI50 (M14 [3]; read-out: pGI50 (converted)) was 15.1 µM and the CC50 (M14 [3]; [15]) was over 100 µM. It also gave a TGI (M14 [3]; read-out: pTGI (converted)) of over 100 µM, a GI50 (IGROV-1 [4]; read-out: GI50) of 3.72 µM and a CC50 (IGROV-1 [4]; [14]) of over 100 µM. The TGI (IGROV-1 [4]; read-out: TGI) was 65.7 µM, the GI50 (IGROV-1 [4]; read-out: pGI50 (converted)) was 3.72 µM and the CC50 (IGROV-1 [4]; [15]) was over 100 µM. It also gave a TGI (IGROV-1 [4]; read-out: pTGI (converted)) of 66.1 µM, a GI50 (SK-OV-3 [5]; read-out: GI50) of 52.7 µM and a CC50 (SK-OV-3 [5]; [14]) of over 100 µM. For the same compound, the TGI (SK-OV-3 [5]; read-out: TGI) was over 100 µM, the GI50 (SK-OV-3 [5]; read-out: pGI50 (converted)) was 52.5 µM and the CC50 (SK-OV-3 [5]; [15]) was over 100 µM. The TGI (SK-OV-3 [5]; read-out: pTGI) was over 100 µM, the GI50 (A498 [6]; read-out: GI50) was 3.87 µM and the CC50 (A498 [6]; [14]) was over 100 µM. For the same compound, the TGI (A498 [6]; read-out: TGI) was 40.3 µM, the GI50 (A498 [6]; read-out: pGI50 (converted)) was 3.89 µM and the CC50 (A498 [6]; [15]) was over 100 µM. The TGI (A498 [6]; read-out: pTGI (converted)) was 40.7 µM, the growth at 0.1 µM (NCI-H460) was 96% and the growth at 0.1 µM (COLO 205) was 97%. It also gave a growth at 0.1 µM (HT-29) of 104%, a growth at 0.1 µM (OVCAR-5) of 99% and a growth at 0.1 µM (DU-145) of 107%. It also gave a growth at 0.1 µM (MDA-MB-231) of 97%, a growth at 10 µM (LOX IMVI) of 94% and a growth at 10 µM (SK-MEL-5) of 89%. For the same compound, the growth at 10 µM (UO-31 [7]) was 82%, the growth at 10 µM (NCI/ADR-RES) was 105% and the growth at 10 µM [8] was 82%. For the same compound, the growth at 100 µM (NCI-H23) was 71%, the growth at 100 µM (HCC 2998) was 66% and the growth at 100 µM (RXF 393 [9]) was 49%. It also gave a growth at 100 µM (UO-31 [10]) of 46%, a growth at 100 µM (MDA-MB-435) of 51% and a growth at 1000 µM (EKVX) of 36%. For the same compound, the growth at 1000 µM (IGROV-1 [11]) was -6%, the growth at 1000 µM (OVCAR-3) was 6% and the growth at 1000 µM (OVCAR-8) was 22%. It also gave a growth at 1000 µM (RXF 393 [12]) of -36%, a growth at 1 µM (HCT-116) of 90% and a growth at 1 µM (M14 [13]) of 98%.

CNC(=O)OC[C@H]1O[C@@H](n2cnc3c(NC(=O)Nc4ccccc4)ncnc32)[C@H](O[Si](C)(C)C(C)(C)C)[C@@H]1O[Si](C)(C)C(C)(C)C showed a growth at 10 µM (SW-620) of 98%, a growth at 10 µM (LOX IMVI) of 87.4% and a growth at 10 µM (SK-MEL-5) of 101%. It also gave a growth at 10 µM (UO-31 [7]) of 106%, a growth at 10 µM (NCI/ADR-RES) of 97.6% and a growth at 10 µM [8] of 97.6%.
